# US20040072770A1, “Methods for specifically inhibiting histone deacetylase-7 and 8” (priority 2002, published 2004)
# How the values were obtained:
# MDAmb231 cells [1] = assay: Growth inhibition by antisense oligos, MDAmb231; type: cell-based, human; conditions: 50 nM, 48 hour, vs cells treated with lipofectin
# Experimental: [The procedure below names another cell line; the source lists this cell line under the same test.] (§1) For all ex vivo oligo treatment, human A549 human […] carcinoma cells were seeded in 10 cm tissue culture dishes one day prior to oligonucleotide treatment. The cell lines were obtained from the American Type Culture Collection (ATCC) (Manassas, Va.) and were grown under the recommended culture conditions. Before the addition of the oligonucleotides, cells were washed with PBS (phosphate buffered saline). Next, lipofectin transfection reagent (GIBCO BRL Mississauga, Ontario, Calif.), at a concentration of 6.25 μg/ ml, was added to serum free OPTIMEM medium (GIBCO BRL, Rockville, Md.), which was then added to the cells. The oligonucleotides were added directly to the cells (i.e., one oligonucleotide per plate of cells). Mismatched oligonucleotides were used as controls. The same concentration of oligonucleotide (e.g., 50 nM) was used per plate of cells for each oligonucleotide tested. […]
# (§2) For the cell growth inhibition analysis, human cancer or normal cells were treated with 50 nM of paired AS or MM oligos directed against human HDAC-1, HDAC-7 or HDAC-8for up to 96 hours. Cell numbers were counted every day by trypan blue exclusion. Percentage of inhibition was calculated as (100 - AS cell numbers/control cell numbers)%.
# A549 cells [2] = assay: Growth inhibition by antisense oligos, A549; type: cell-based, human; conditions: 50 nM, 48 hour, vs cells treated with lipofectin
# Experimental: (§3) For all ex vivo oligo treatment, human A549 human […] carcinoma cells were seeded in 10 cm tissue culture dishes one day prior to oligonucleotide treatment. The cell lines were obtained from the American Type Culture Collection (ATCC) (Manassas, Va.) and were grown under the recommended culture conditions. Before the addition of the oligonucleotides, cells were washed with PBS (phosphate buffered saline). Next, lipofectin transfection reagent (GIBCO BRL Mississauga, Ontario, Calif.), at a concentration of 6.25 μg/ ml, was added to serum free OPTIMEM medium (GIBCO BRL, Rockville, Md.), which was then added to the cells. The oligonucleotides were added directly to the cells (i.e., one oligonucleotide per plate of cells). Mismatched oligonucleotides were used as controls. The same concentration of oligonucleotide (e.g., 50 nM) was used per plate of cells for each oligonucleotide tested.
# (§4) In order to determine the effect of HDAC ODNs on cell growth inhibition and cell death through apoptosis, A549, T24, DuI45, HCT116 cells (ATCC, Manassas, Va.), or HMEC cells (BioWhittaker, Walkersville, Md.) were treated with HDAC ODNs as previously described.
# as §2
# MCF-7 cells [3] = assay: Growth inhibition by antisense oligos, MCF-7; type: cell-based, human; conditions: 75 nM treatment for 2 days, vs cells treated with lipofectin
# Experimental: [The procedure below names another cell line; the source lists this cell line under the same test.] as §1, §2
# MDAmb231 cells [4] = assay: Inhibition of agar colony formation, MDAmb231; type: cell-based, human; conditions: 50 nM oligos for 48 hours, vs cells treated with lipofectin
# H446 cells = assay: Growth inhibition by antisense oligos, H446; type: cell-based, human; conditions: 75 nM treatment for 2 days, vs cells treated with lipofectin
# MDAmb231 cells [5] = assay: Apoptosis (Cell Death Detection ELISA), MDAmb231; type: cell-based, human; conditions: 50 nM, 48 hours, over mismatch control
# Du145 cells = assay: Growth inhibition by antisense oligos, Du145; type: cell-based, human; conditions: 50 nM, 48 hour, vs cells treated with lipofectin
# Experimental: as §3, §4, §2
# A549 cells [6] = assay: Apoptosis (Cell Death Detection ELISA), A549; type: cell-based, human; conditions: 50 nM, 48 hours, over mismatch control
# Experimental: as §3, §4
# (§5) For the apoptosis study, cells were analyzed using the Cell Death Detection ELISA^Plus kit (Roche Diagnostic GmBH, Mannheim, Germany) according to the manufacturer's directions. Typically, 10,000 cells were plated in 96-well tissue culture dishes for 2 hours before harvest and lysis. Each sample was analyzed in duplicate. ELISA reading was done using a MR700 plate reader (DYNEX Technology, Ashford, Middlesex, England) at 410 nm. The reference was set at 490 nm.
# […] Similarly, A549 cells were treated with 20 nM of HDAC1 AS in combination with 20 nM of each of AS inhibitors against human HDAC2 to HDAC8. After 48 hour treatment, A549 cells were harvested and analyzed for apoptosis by ELISA as described previously. Apoptosis of A549 cells by AS inhibition was compared to that of cells treated with 1 uM TSA for 16 hours. […] The control oligo UMM had no effect on induction of apoptosis.
# T24 cells [7] = assay: Growth inhibition by antisense oligos, T24; type: cell-based, human; conditions: 50 nM, 48 hour, vs cells treated with lipofectin
# Experimental: as §1, §2
# MCF-7 cells [8] = assay: Apoptosis (Cell Death Detection ELISA), MCF-7; type: cell-based, human; conditions: 50 nM, 48 hours, over mismatch control
# human HDAC-1 RNA = assay: HDAC-1 RNA expression screen in T24 cells, Northern blot; type: cell-based; conditions: 100 nM, 24 hours
# Experimental: To identify antisense oligodeoxynucleotide (ODN) capable of inhibiting HDAC-1 expression in human cancer cells, eleven phosphorothioate ODNs containing sequences complementary to the 5′ or 3′ UTR of the human HDAC-1 gene (GenBank Accession No. U50079) were initially screened in T24 cells at 100 nM. Cells were harvested after 24 hours of treatment, and HDAC-1 RNA expression was analyzed by Northern blot analysis. […] HDAC-1 MM oligo was created as a control; compared to the antisense oligo, it has a 6-base mismatch.
# T24 cells [9] = assay: Apoptosis (Cell Death Detection ELISA), T24; type: cell-based, human; conditions: 50 nM, 48 hours, over mismatch control
# Experimental: as §3, §4, §5
# A549 cells [10] = assay: Inhibition of agar colony formation, A549; type: cell-based, human; conditions: 50 nM oligos for 48 hours, vs cells treated with lipofectin
# HCT116 cells = assay: Apoptosis (Cell Death Detection ELISA), HCT116; type: cell-based, human; conditions: 50 nM, 48 hours, over mismatch control
# Experimental: as §1
# as §5, with “Typically, 10,000 cells were plated in 96-well tissue culture dishes for 2 hours before harvest and lysis.” left out, “The reference was set at 490 nm.” left out
substance,measurement,setting,value
5′-GAAACGTGAGGGACTCAGCA-3′ (chemistry not given here) [HD1 AS1],Growth Inhibition MDAmb 231,MDAmb231 cells [1],"+ (“+” means >35% inhibition of cell growth by antisense oligos (50 nM, 48 hour) compared to that of cells treated with lipofectin)"
same,Growth Inhibition A549,A549 cells [2],"+ (“+” means >35% inhibition of cell growth by antisense oligos (50 nM, 48 hour) compared to that of cells treated with lipofectin)"
same,Growth Inhibition MCF-7,MCF-7 cells [3],"+ (“+” means >35% inhibition of cell growth by antisense oligos (50 nM, 48 hour) compared to that of cells treated with lipofectin)"
same,inhibition of agar colony formation MDAmb 231,MDAmb231 cells [4],+ (“+” means >35% inhibition of agar colony formation of cells treated with 50 nM oligos for 48 hours compared to that of cells treated with lipofectin)
same,Growth Inhibition H446,H446 cells,"+ (“+” means >35% inhibition of cell growth by antisense oligos (50 nM, 48 hour) compared to that of cells treated with lipofectin)"
same,Apoptosis MDAmb 231,MDAmb231 cells [5],"+ (“+” means the induction of apoptosis at least 2 fold over mismatch control (50 nM, 48 hours))"
same,Growth Inhibition Du145,Du145 cells,"+ (“+” means >35% inhibition of cell growth by antisense oligos (50 nM, 48 hour) compared to that of cells treated with lipofectin)"
same,Apoptosis A549,A549 cells [6],"+ (“+” means the induction of apoptosis at least 2 fold over mismatch control (50 nM, 48 hours))"
same,Growth Inhibition T24,T24 cells [7],"+ (“+” means >35% inhibition of cell growth by antisense oligos (50 nM, 48 hour) compared to that of cells treated with lipofectin)"
same,Apoptosis MCF-7,MCF-7 cells [8],"+ (“+” means the induction of apoptosis at least 2 fold over mismatch control (50 nM, 48 hours))"
same,"HDAC-1 RNA expression, screen",human HDAC-1 RNA,antisense activity to human HDAC-1
same,Apoptosis T24,T24 cells [9],"+ (“+” means the induction of apoptosis at least 2 fold over mismatch control (50 nM, 48 hours))"
same,inhibition of agar colony formation A549,A549 cells [10],+ (“+” means >35% inhibition of agar colony formation of cells treated with 50 nM oligos for 48 hours compared to that of cells treated with lipofectin)
same,Apoptosis HCT 116,HCT116 cells,"+ (“+” means the induction of apoptosis at least 2 fold over mismatch control (50 nM, 48 hours))"
